Experiments:
[1] = compound: CN(C)C/C=C/C(=O)Nc1ccc(C(=O)N2CCC[C@@H](Nc3ncc(Cl)c(-c4c[nH]c5ccccc45)n3)C2)cc1 [THZ531]; assay: increase in dead-cell fraction, 72 h; higher = more death;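 also: breast cancer cell lines in 384-well plates, stained with Hoechst plus LIVE/DEAD far red dye and imaged, cells above an LDR intensity threshold counted dead, Hoechst-negative corpses included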
[2] = compound: T1, C=CC(=O)Nc1ccc(C(=O)Nc2[nH]nc3c2CN(C(=O)N[C@H](CN(C)C)c2ccccc2)C3(C)C)cc1 [YKL-5-124]; assay: as above
[3] = compound: Cc1cc(Nc2ncc(Cl)c(Nc3ccccc3S(=O)(=O)C(C)C)n2)c(OC(C)C)cc1C1CCNCC1 [Ceritinib/LDK378]; assay: GR value, 72 h; higher = faster growth (1 = untreated, <0 = killing);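 also: breast cancer and non-malignant breast epithelial lines, nine half-log doses, viable cells counted by Hoechst and LIVE/DEAD dye imaging versus time-zero plates and DMSO controls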
[4] = compound: CC(C)n1nc(-c2ccc3oc(N)nc3c2)c2c(N)ncnc21 [INK128/MLN0128]; assay: as above
[5] = compound: CNc1nc(-c2ccc3c(N)n[nH]c3c2)cc(N2C[C@@H](C(=O)NC3CCCCC3)CC[C@H]2C)n1; assay: as above
[6] = compound: CN1CCN(C(=O)c2ccc3cc(CCNc4ncnc5ccc(C#N)cc45)ccc3c2)CC1 [senexin b]; assay: as above
[7] = compound: Nc1cc(C(F)(F)F)c(-c2cc(N3CCOCC3)nc(N3CCOCC3)n2)cn1 [Buparlisib/NVP-BKM120]; assay: as above
[8] = compound: CC1(CCN(CC1)C2=CN=C(C(=N2)N)C3=C(C(=CC=C3)Cl)Cl)N [SHP099]; assay: as above
[9] = compound: CCC(=O)Nc1ccc(C(=O)Nc2ccc(Nc3ncc4c(n3)N(C)c3ccc(C)cc3C(=O)N4C)cc2)cc1 [FMF-03-145-1]
[10] = compound: CO[C@H]1C[C@@H]2CC[C@@H](C)[C@@](O)(O2)C(=O)C(=O)N2CCCC[C@H]2C(=O)O[C@H]([C@H](C)C[C@@H]2CC[C@@H](OCCO)[C@H](OC)C2)CC(=O)[C@H](C)/C=C(\C)[C@@H](O)[C@@H](OC)C(=O)[C@H](C)C[C@H](C)/C=C/C=C/C=C/1C [Everolimus]
[11] = compound: T1, YKL-5-124
[12] = compound: COc1cccc(OCCCN)c1-c1cc(Nc2cnc(C#N)cn2)n[nH]1
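For GR50, 72 h in this document: breast cancer and non-malignant breast epithelial cell lines, Deep Dye Drop or Dye Drop imaging, nine half-log doses, GR normalized to time-zero plates and DMSO-only controls.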

AU565
increase in dead-cell fraction ([1]; 0.0001 µM): 0.0002 | increase in dead-cell fraction ([1]; 0.0003162 µM): 0.0023 | increase in dead-cell fraction ([1]; 0.001 µM): -0.0009 | increase in dead-cell fraction ([1]; 0.003162 µM): 0.0019 | increase in dead-cell fraction ([1]; 0.01 µM): -0.005 | increase in dead-cell fraction ([1]; 0.03162 µM): 0.0372 | increase in dead-cell fraction ([1]; 0.1 µM): 0.133 | increase in dead-cell fraction ([1]; 0.3162 µM): 0.297 | increase in dead-cell fraction ([1]; 1 µM): 0.488 | increase in dead-cell fraction ([2]; 0.001 µM): 0.0305 | increase in dead-cell fraction ([2]; 0.003162 µM): 0.0489 | increase in dead-cell fraction ([2]; 0.01 µM): 0.0994 | increase in dead-cell fraction ([2]; 0.03162 µM): 0.0877 | increase in dead-cell fraction ([2]; 0.1 µM): 0.0813 | increase in dead-cell fraction ([2]; 0.3162 µM): 0.114 | increase in dead-cell fraction ([2]; 1 µM): 0.113 | increase in dead-cell fraction ([2]; 3.162 µM): 0.215 | increase in dead-cell fraction ([2]; 10 µM): 0.524 | GR value ([3]; 0.001 µM): 1.01 GR | GR value ([3]; 0.003162 µM): 0.971 GR | GR value ([3]; 0.01 µM): 1 GR | GR value ([3]; 0.03162 µM): 1.01 GR | GR value ([3]; 0.1 µM): 0.983 GR | GR value ([3]; 0.3162 µM): 0.993 GR | GR value ([3]; 1 µM): 0.887 GR | GR value ([3]; 3.162 µM): 0.479 GR | GR value ([4]; 0.0003162 µM): 0.889 GR | GR value ([4]; 0.001 µM): 0.931 GR | GR value ([4]; 0.003162 µM): 0.62 GR | GR value ([4]; 0.01 µM): 0.249 GR | GR value ([4]; 0.03162 µM): 0.0411 GR | GR value ([4]; 0.1 µM): -0.0783 GR | GR value ([4]; 0.3162 µM): -0.0838 GR | GR value ([4]; 1 µM): -0.184 GR | GR value ([4]; 3.162 µM): -0.48 GR | GR value ([5]; 0.001 µM): 0.974 GR | GR value ([5]; 0.003162 µM): 0.901 GR | GR value ([5]; 0.01 µM): 0.723 GR | GR value ([5]; 0.03162 µM): 0.933 GR | GR value ([5]; 0.1 µM): 0.894 GR | GR value ([5]; 0.3162 µM): 0.766 GR | GR value ([5]; 1 µM): 0.655 GR | GR value ([5]; 3.162 µM): 0.747 GR | GR value ([5]; 10 µM): 0.392 GR | GR value ([6]; 0.001 µM): 1.02 GR | GR value ([6]; 0.003162 µM): 0.919 GR | GR value ([6]; 0.01 µM): 0.88 GR | GR value ([6]; 0.03162 µM): 1.05 GR | GR value ([6]; 0.1 µM): 0.897 GR | GR value ([6]; 0.3162 µM): 0.904 GR | GR value ([6]; 1 µM): 0.786 GR | GR value ([6]; 3.162 µM): 0.768 GR | GR value ([6]; 10 µM): 0.913 GR | GR value ([7]; 0.001 µM): 1.05 GR | GR value ([7]; 0.003162 µM): 1.07 GR | GR value ([7]; 0.01 µM): 0.976 GR | GR value ([7]; 0.03162 µM): 0.845 GR | GR value ([7]; 0.1 µM): 0.505 GR | GR value ([7]; 0.3162 µM): 0.186 GR | GR value ([7]; 1 µM): -0.365 GR | GR value ([7]; 3.162 µM): -0.533 GR | GR value ([7]; 10 µM): -0.494 GR | GR value ([8]; 0.001 µM): 0.972 GR | GR value ([8]; 0.003162 µM): 0.94 GR | GR value ([8]; 0.01 µM): 0.815 GR | GR value ([8]; 0.03162 µM): 1.07 GR | GR value ([8]; 0.1 µM): 1 GR | GR value ([8]; 0.3162 µM): 0.949 GR | GR value ([8]; 1 µM): 0.925 GR | GR value ([8]; 3.162 µM): 0.932 GR | GR value ([8]; 10 µM): 0.939 GR | GR50, 72 h [9]: 0.00474 µM | GR50, 72 h [10]: 0.00185 µM | GR50, 72 h [11]: < 0.001 µM | GR50, 72 h [12]: 0.000768 µM

— the supplement of paper PMC9663587
